In patent US10472610B2, “Method for generating pancreatic bud cells and therapeutic agent for pancreatic disease containing pancreatic bud cells” (Kyoto University, priority 2014, dated 2019):

How the values were obtained:
human ES cell line KhES3 = settings: added in Stage 3 on day 2 or after for 1-2 days
Experimental: In the figure, arrows indicate time periods when ALK5 inhibitor II was added to the medium. […] The expressions were measured by a flow cytometer. In the figure, numbers indicate the ratio of PDX1^+ and NKX6.1^+ cells contained in the culture.
The cells obtained in Stage 2 were dissociated into single cells with trypsin and seeded on a Low Attachment 96-well plate (Lipidure Coat, NOF) at a density of 3.0×10^3 to 3.0×10^4 cells/well. Improved MEM Zinc Option (15×10^4 cells/ml) containing 100 ng/ml of KGF, 100 ng/ml of Noggin, 50 ng/ml of EGF (R&D systems), 10 μM of Y-27632 and 1% B-27 was added to the plate, and the cells were further cultured for 4 to 20 days. During this time period, the medium was exchanged with fresh medium every 4 days. As a control, cells obtained in Stage 2 were dissociated into single cells with trypsin and seeded on a Matrigel coated 24 well plate (Greiner) at a density of 6.0×10^4 to 4.8×10^5 cells/cm^2 and cultured under adhesive conditions in the same medium for four days. […]
The cells obtained at four days after the start of Stage (S3d4) were treated with BD Cytofix/Cytoperm™ Kit, stained with an anti-PDX1 antibody (R&D systems) and an anti-NKX6.1 antibody (University of Iowa), and the ratio of PDX1^+ cells as well as the ratio of PDX1^+NKX6.1^+ cells were determined by using a flow cytometer.

iPS cell line 585A1 [1] = assay: Modified adherent culture protocol, additives during Stage 3, flow cytometer or image analyzer; format: cell-based, human; settings: for ratio of PDX1^+NKX6.1^+ cells / ratio of NKX6.1^+ cells: compound in Stage 3 medium, modified protocol, 4 days
Experimental: Cells of iPS cell line 585A1 were seeded on a Matrigel coated 24 well plate at a density of 2.0×10^5 cells/well, and the cells were cultured in RPMI 1640 Medium (Nacalai Tesque, Inc.) supplemented with 2% B-27 (Life Technologies), to which 100 ng/ml of activin A (R&D systems), 3 μM of CHIR99021 (Axon Medchem) and 10 μM of Y-27632 (Wako Pure Chemical Industries, Ltd.) were added, for one day. The medium was exchanged with RPMI 1640 Medium containing 100 ng/ml of activin A, 1 μM of CHIR99021 and 2% B-27 (Life Technologies), and the cells were cultured for two days. In addition, the medium was exchanged with RPMI 1640 Medium containing 100 ng/ml of activin A and 2% B-27 (Life Technologies), and the cells were cultured for one day.
The medium was exchanged with Improved MEM Zinc Option (Invitrogen) containing 50 ng/ml of KGF (R&D systems) and 1% B-27 (Life Technologies), and the cells were cultured for 3 or 4 days. Subsequently, the medium was exchanged with Improved MEM Zinc Option containing 50 ng/ml of KGF, 100 ng/ml of Noggin (Peprotech), 10 nM of TTNPB (Santa Cruz Biotechnology), 0.5 μM of 3-Keto-N-aminoethyl-N′-aminocaproyldihydrocinnamoyl Cyclopamine (KAAD-cyclopamine or K-CYC) (Toronto Research Chemicals) and 1% B-27 and the cells were cultured for 2 or 3 days.

iPS cell line 585A1 [2] = assay: Adherent culture protocol, Y-27632 during Stage 3, flow cytometry of PDX1/NKX6.1; format: cell-based, human; settings: four days
Experimental: Cells of iPS cell line 585A1 were seeded on a Matrigel coated 24 well plate at a density of 2.0×10^5 cells/well, and cultured in RPMI 1640 Medium (Nacalai Tesque, Inc.) supplemented with 2% B-27 (Life Technologies), 100 ng/ml of activin A (R&D systems), 3 μM of CHIR99021 (Axon Medchem) and 10 μM of Y-27632 (Wako Pure Chemical Industries, Ltd.) for one day. The medium was exchanged with RPMI 1640 Medium containing 100 ng/ml of activin A, 1 μM of CHIR99021 and 2% B-27 (Life Technologies), and the cells were cultured for two days. The medium was then exchanged with RPMI 1640 Medium containing 100 ng/ml of activin A and 2% B-27 (Life Technologies), and the cells were cultured for one day.
The medium of the culture obtained in Stage 1 was exchanged with Improved MEM Zinc Option (Invitrogen) containing 50 ng/ml of KGF (R&D systems) and 1% B-27 (Life Technologies) and the cells were cultured for three days. Subsequently, the medium was exchanged with Improved MEM Zinc Option containing 50 ng/ml of KGF, 100 ng/ml of Noggin (Peprotech), 10 nM of TTNPB (Santa Cruz Biotechnology), 0.5 μM of 3-Keto-N-aminoethyl-N′-aminocaproyldihydrocinnamoyl Cyclopamine (KAAD-cyclopamine or K-CYC) (Toronto Research Chemicals) and 1% B-27, and the cells were cultured for three days.

Cc1cccc(-c2n[nH]cc2-c2ccc3ncccc3n2)n1 [ALK5 inhibitor II, 2-[3-[6-methylpyridin-2-yl]-1H-pyrazol-4-yl]-1,5-naphthyridine]
ratio of PDX1^+NKX6.1^+ cells (human ES cell line KhES3): increased

O=S(=O)(c1cccc2cnccc12)N1CCCNCC1 [Fasudil]
concentration at which the effect on the ratio of PDX1^+NKX6.1^+ cells was highest (iPS cell line 585A1 [1]; Stage 3, modified protocol): 50 µM | ratio of PDX1^+NKX6.1^+ cells (iPS cell line 585A1 [1]): increased in a concentration-dependent manner

Cc1ccc2c(c1)C(=O)C1(O)CCN(c3ccccc3)C1=N2 (centres unmarked) [Blebbistatin]
concentration from which the ratio of PDX1^+NKX6.1^+ cells increased (iPS cell line 585A1 [1]; Stage 3, modified protocol): 5 µM | concentration up to which the effect on the ratio of PDX1^+NKX6.1^+ cells was high (iPS cell line 585A1 [1]; Stage 3, modified protocol): up to 20 μM | ratio of PDX1^+NKX6.1^+ cells (iPS cell line 585A1 [1]): increased

CN(C)CCOc1cc(-c2cn[nH]c2)ccc1NC(=O)C1COc2ccccc2O1 (centres unmarked) [SR3677]
concentration at which the effect on the ratio of NKX6.1^+ cells was highest (iPS cell line 585A1 [1]; Stage 3, modified protocol): 5 µM | ratio of NKX6.1^+ cells (iPS cell line 585A1 [1]): increased in a concentration-dependent manner

C[C@@H](N)[C@H]1CC[C@H](C(=O)Nc2ccncc2)CC1 [Y-27632]
concentration at which the effect on the ratio of PDX1^+NKX6.1^+ cells was highest (iPS cell line 585A1 [2]; Stage 3, adherent culture): 100 µM | ratio of PDX1^+NKX6.1^+ cells (iPS cell line 585A1 [2]; compound in Stage 3 medium, adherent culture): increased in a concentration-dependent manner

CCn1c(-c2nonc2N)nc2cnc(Oc3cccc(NC(=O)c4ccc(OCCN5CCOCC5)cc4)c3)cc21 [GSK269962]
concentration at which the effect on the ratio of NKX6.1^+ cells was highest (iPS cell line 585A1 [1]; Stage 3, modified protocol): 1 µM | ratio of NKX6.1^+ cells (iPS cell line 585A1 [1]): increased in a concentration-dependent manner

Cc1cncc2cccc(S(=O)(=O)N3CCCNC[C@@H]3C)c12 [H-1152]
concentration at which the effect on the ratio of NKX6.1^+ cells was highest (iPS cell line 585A1 [1]; Stage 3, modified protocol): 50 µM | ratio of NKX6.1^+ cells (iPS cell line 585A1 [1]): increased in a concentration-dependent manner
